Literature values as cited in US20090233947A1, “2,3-Substituted fused bicyclic pyrimidin-4(3H)-ones which modulating the function of the vanilloid -1 receptor (VR1)” (priority 2005, published 2009).

Molecular target: VR1 (Rattus norvegicus, UniProt O35433)
Conditions: Wahl et al., Mol. Pharmacol., 59:9, 2001

Sequence of VR1 (O35433 whole entry): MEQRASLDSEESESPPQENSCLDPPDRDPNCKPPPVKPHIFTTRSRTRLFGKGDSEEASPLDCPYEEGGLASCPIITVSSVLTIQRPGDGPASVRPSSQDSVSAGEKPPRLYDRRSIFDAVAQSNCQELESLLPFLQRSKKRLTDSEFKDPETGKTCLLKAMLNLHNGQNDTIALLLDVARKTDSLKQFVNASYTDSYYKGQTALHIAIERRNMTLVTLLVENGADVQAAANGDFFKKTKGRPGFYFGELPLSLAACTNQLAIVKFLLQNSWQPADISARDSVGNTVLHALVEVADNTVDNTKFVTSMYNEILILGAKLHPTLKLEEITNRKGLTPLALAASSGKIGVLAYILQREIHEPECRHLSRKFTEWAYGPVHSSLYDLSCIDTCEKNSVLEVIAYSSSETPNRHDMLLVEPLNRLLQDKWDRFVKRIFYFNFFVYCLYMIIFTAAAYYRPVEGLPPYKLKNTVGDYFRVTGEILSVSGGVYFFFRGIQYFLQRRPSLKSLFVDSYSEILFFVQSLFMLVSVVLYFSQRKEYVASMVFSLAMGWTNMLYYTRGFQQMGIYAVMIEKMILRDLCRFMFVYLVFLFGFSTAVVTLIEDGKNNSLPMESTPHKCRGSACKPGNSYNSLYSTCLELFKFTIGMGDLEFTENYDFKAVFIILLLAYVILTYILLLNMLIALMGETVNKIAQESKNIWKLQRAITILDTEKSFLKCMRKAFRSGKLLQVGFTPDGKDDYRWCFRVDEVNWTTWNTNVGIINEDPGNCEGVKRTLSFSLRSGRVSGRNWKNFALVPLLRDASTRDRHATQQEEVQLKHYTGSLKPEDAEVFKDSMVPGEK

In the case of `C=C(C)[C@]12C[C@@H](C)[C@@]34O[C@](Cc5ccccc5)(O[C@@H]1[C@@H]3C=C(COC(=O)Cc1cc(I)c(O)c(OC)c1)C[C@]1(O)C(=O)C(C)=C[C@@H]41)O2` [iodo-resiniferatoxin], the “antagonist of VR1” value is listed as “nanomolar antagonist”.
